Where two headings read alike, the source gives them in different places.
Legend:
zebrafish embryos = conditions: 6 mM FA
Experimental: Transgenic zebrafish (fli-1:EGFP) were from the Model Animal Research Center of Nanjing University. Adult zebrafish aged less than 1 were used for experiment and fed at a water pH value of 7±0.2, a temperature around 28° C. and a ratio of illumination to darkness of 14 h:10 h, and with Artemia salina eggs twice a day. Three zebrafish, one female, two males, were placed in a spawning box the night before and eggs were collected the next morning. Fish eggs were placed in an embryo culture medium (prepared with 0.2 g/L of sea salt) and cultured at 28° C. […] Dead embryos were cleaned up in time. Each experiment was conducted in triplicate. […] A phenotype of malformation was observed, the number of all abnormal zebrafish where the malformation was present was recorded and a malformation rate and a rescue rate of each group were calculated. Morphological defects, a heart rate, cardiac morphology and other indicators were observed and evaluated by an SMZ745T inverted stereomicroscope.

heart of fetal mice = experiment: Effects of folic acid and 5-methyltetrahydrofolate on heart development of fetal/neonatal mice, histology (Example 10); conditions: mouse, in vivo
Experimental: (§1) 75 7-week-old female C57BL/6J mice and 25 8-week-old male C57BL/6J mice were provided by Shanghai Lingchang Biotechnology Co., Ltd. with a certificate number of SCXK (Shanghai) 2018-0003. […] The female mice were randomly divided into 5 groups according to body weight: a solvent control group, a folic acid (151.66 μg/kg) group, a folic acid (303.32 μg/kg) group, a calcium 5-methyltetrahydrofolate (converted to folic acid, 151.66 μg/kg) group and a calcium 5-methyl tetrahydrofolate (converted to folic acid, 303.32 μg/kg) group. 1.1275 unit mass of the calcium 5-methyltetrahydrofolate equaled to 1 unit mass of the folic acid.
(§2) 15 mice were in each group and numbered by a toe clipping method. The mice were intragastrically administrated once a day on the second day after grouping. One week after the pre-administration, male and female mice were caged at a ratio of […], a vaginal plug was observed every day from the next day, and a day when the vaginal plug was seen was recorded as day 0.5 of pregnancy. After 14 days of caging, the female mice stopped the administration, the male mice were removed, and the pregnant female mice were fed alone until litter.
After the detection, thoracic and abdominal cavities of the mice were dissected, cardiac morphology and beating were observed under a stereoscopic microscope (SMZ168, Motic, Xiamen, Fujian, China), and photographs and video recordings were taken (Motic Image Plus 3.0, Motic, Xiamen, Fujian, China). The mice were sacrificed and the hearts, the livers, the kidneys and the lungs were harvested. The hearts and the livers of the neonatal mice were selected from each group and fixed with 4% paraformaldehyde, the fixed hearts and livers were embedded in paraffin, the embedded hearts and livers were sliced and the slices were stained with H&E. A half of the other tissues were immersed in RNA later for fixation and the other half were directly immersed in liquid nitrogen and frozen for a subsequent experiment.
1-day-old neonatal mice were sacrificed, the hearts were taken and fixed with 4% paraformaldehyde, the fixed hearts were embedded in paraffin, the embedded hearts were sliced, the slices were stained with H&E and pictures were taken under a normal microscope.

heart of neonatal mice = conditions: mouse, in vivo
Experimental: as §1, §2
In addition, 4-5 mice were randomly selected from each group and the 6-day-old small animals were subjected to cardiac echocardiography (Vevo 2100 Imaging System, VisualSonics, Toronto, ON, Canada).

## Nc1nc2ncc(CNc3ccc(C(=O)N[C@@H](CCC(=O)O)C(=O)O)cc3)nc2c(=O)[nH]1 [FA, pteroylglutamic acid]
Zebrafish embryos
  10 s heart rate (48 hpf) and body length (72 hpf): seriously led to bradycardia and a shortened body length of zebrafish
Zebrafish embryos; 2-72 hpf
  survival rate of zebrafish: severely led to a low survival rate of zebrafish
Zebrafish embryos; 8 hpf
  embryo development: delayed development of the zebrafish embryos
Zebrafish embryos; 24 hpf
  embryo phenotype: led to small heads and short tails of zebrafish
Zebrafish embryos; 48 hpf
  embryo phenotype: led to pericardium edema, dyspigmentation, and intersegmental vascular hypoplasia of zebrafish
  pericardium edema: seriously led to pericardium edema of zebrafish
Zebrafish embryos; 72 hpf
  embryo phenotype: led to developmental disorders of lower intestinal network blood vessels of the zebrafish
Heart of fetal mice
  heart slices (H&E) of 1-day-old neonatal mice: A small block of a heart wall was defective
Heart of neonatal mice
  left ventricular internal diameter end-diastole (LVID(d)): significantly lower than those of other groups
  left ventricular internal diameter end-systole (LVID(s)): significantly lower than those of other groups

Reference: patent publication US20230043678A1, “USE OF 5-METHYLTETRAHYDROFOLATE” (priority 2019, published 2023)
